Results as given in BindingDB's records for patent US20240382465 (Zhejiang Hisun Pharmaceutical, 2024).

Target: T1, UDP-3-O-acyl-N-acetylglucosamine deacetylase (Pseudomonas aeruginosa (strain ATCC 15692 / DSM 22644 / CIP 104116 / JCM 14847 / LMG 12228 / 1C / PRS 101 / PAO1), UniProt P47205)
T1 sequence (P47205 whole entry): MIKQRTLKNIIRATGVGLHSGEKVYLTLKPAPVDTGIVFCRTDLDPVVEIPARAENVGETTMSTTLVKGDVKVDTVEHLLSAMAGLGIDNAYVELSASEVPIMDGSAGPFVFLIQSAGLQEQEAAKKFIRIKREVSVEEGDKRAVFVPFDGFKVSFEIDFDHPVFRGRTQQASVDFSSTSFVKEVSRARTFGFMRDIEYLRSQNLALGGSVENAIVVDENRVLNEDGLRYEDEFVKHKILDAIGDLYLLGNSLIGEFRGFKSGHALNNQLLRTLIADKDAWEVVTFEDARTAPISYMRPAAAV
Test: LpxC Enzymatic Activity Assay
Description: The experimental procedure is briefly described as follows: The test compound was first dissolved in DMSO to prepare a 10 mM stock solution. The reaction was carried out in a 96-well microplate. First, 20 μL of recombinant Pseudomonas aeruginosa LpxC (purchased from Signalway Antibody, product number AP74647-2) was added to each well, with a final concentration of 5 nM. 5 μL of the compound to be tested was then added, and the compound was diluted 4 times to 8 concentration points with a concentration range of 0.61-10,000 nM. 5 μL of LpxC substrate UDP-3-O—(R-3-hydroxydecanoyl)-GlcNAc (purchased from Biosynth Carbosynth, product number: mu75071) was added, with a final concentration of the substrate of 10 μM. The plate was incubated at 25° C. for 120 minutes. Then 20 μL of 2.0 mg/mL fluorescamine (purchased from sigmaaldrich, product number: F9015, solvent: 1:1 dimethylformamide/acetonitrile) was added to the reaction system, and mixed well for 10 minutes of reaction. Finally, 50 μL of 200 mM sodium phosphate buffer (pH 8.0) was added to terminate the reaction. Reading was carried out using a microplate reader (BMG), and the excitation and emission wavelengths were 390 and 495 nm respectively.

| SMILES | IC50 [nM] |
| --- | --- |
| C[C@H](O)c1nccn1Cc1cc(-c2ccc(C#Cc3ccc(N4CCN(C)CC4)cc3)cc2)on1 [US20240382465, Example 65] | 64.6 |
| C[C@H](O)c1nccn1Cc1cc(-c2ccc(C#Cc3ccc(NC4CCOCC4)cc3)cc2)on1 [US20240382465, Example 66] | 67.9 |
